Test results published in patent publication US20240158348A1, “HERBICIDAL CYCLIC AMIDES N-SUBSTITUTED WITH A HALOALKYLSULFONYLANILIDE GROUP” (FMC Corporation, priority 2021, published 2024).

How the values were obtained:
Format in all cases: in vivo
[1] = tested on: foxtail, giant (giant foxtail, Setaria faberi); test: Test C preemergence, giant foxtail; conditions: 0 is no effect, 100 is complete control
Outline: (§1)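 Steps: sow in loam soil blended with sand; treat soil preemergence by directed spray, or treat young plants (2–10 cm, one to two leaves) postemergence; hold in greenhouse 10 or 12 days; rate injury visually relative to untreated controls on a 0–100 scale.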

[2] = tested on: blackgrass (Alopecurus myosuroides); test: Test C preemergence, blackgrass; conditions: 0 is no effect, 100 is complete control
Outline: as §1

[3] = tested on: pigweed, palmer (palmer amaranth, Amaranthus palmeri); test: Test C preemergence, palmer amaranth; conditions: 0 is no effect, 100 is complete control
Outline: as §1

[4] = tested on: oat, wild (wild oat, Avena fatua); test: Test C preemergence, wild oat; conditions: 0 is no effect, 100 is complete control
Outline: as §1

soybean (Glycine max) = test: Test C postemergence, soybean; conditions: visual injury, 0 to 100 scale (0 no effect, 100 complete control)
[5] = tested on: wheat (Triticum aestivum); test: Test C postemergence, wheat; conditions: visual injury, 0 to 100 scale (0 no effect, 100 complete control)
Outline: as §1

[6] = tested on: ducksalad (Heteranthera limosa); test: Test D flooded paddy test, ducksalad; parameters: key: 0 = no effect, 100 = complete control; conditions: 250 g ai/ha, Flood; applied to paddy water at 2-leaf stage; visual rating after 13 days; scale 0 (no effect) to 100 (complete control)
Outline: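 Pots holding 2-leaf-stage plants were flooded 3 cm deep and dosed via the water, which stayed at that level. After 13 greenhouse days, injury was scored visually against untreated controls, 0 (none) to 100 (complete control); a dash marks no test result.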

[7] = tested on: ragweed (common ragweed, Ambrosia artemisiifolia); test: Test C preemergence, ragweed; conditions: 0 is no effect, 100 is complete control
Outline: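 Plants grown in a sand and loam soil blend received the formulated test chemicals either as a preemergence soil-directed spray or postemergence at 2 to 10 cm height. After 10 or 12 greenhouse days, injury was assessed visually, with 100 meaning complete control.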

[8] = tested on: oat, wild (wild oat, Avena fatua); test: Test C postemergence, wild oat; conditions: visual injury, 0 to 100 scale (0 no effect, 100 complete control)

`Cc1c(NS(=O)(=O)C(F)(F)F)cc(N2CCC(OC3CCC3)C2=O)c(C)c1C` (stereo not drawn) [Compound 45] was tested, and the “Plant response rating (0 to 100 scale), Foxtail, Giant” value (shortened to “Plant response rating … Giant”) ([1]; 31 g ai/ha Preemergence) was 100, the “Plant response rating … Giant” value ([1]; 125 g ai/ha Preemergence) was 100 and the “Plant response rating (0 to 100 scale), Blackgrass” value (shortened to “Plant response rating … Blackgrass”) ([2]; 31 g ai/ha Preemergence) was 60. The “Plant response rating … Blackgrass” value ([2]; 125 g ai/ha Preemergence) was 90, the “Plant response rating (0 to 100 scale), Pigweed, Palmer” value (shortened to “Plant response rating … Palmer”) ([3]; 31 g ai/ha Preemergence) was 100 and the “Plant response rating … Palmer” value ([3]; 125 g ai/ha Preemergence) was 100. The “Plant response rating (0 to 100 scale), Oat, Wild” value ([4]; 31 g ai/ha Preemergence) was 80, the “Plant response rating (0 to 100 scale), Oat, Wild” value ([4]; 125 g ai/ha Preemergence) was 90 and the “Soybean plant response rating” value (soybean (Glycine max); 31 g ai/ha Postemergence) was 80. For the same compound, the “Soybean plant response rating” value (soybean (Glycine max); 125 g ai/ha Postemergence) was 100, the “Wheat plant response rating” value ([5]; 31 g ai/ha Postemergence) was 20 and the “Wheat plant response rating” value ([5]; 125 g ai/ha Postemergence) was 60. The “Plant response rating, Ducksalad” value [6] was 85, the “Plant response rating (0 to 100 scale), Ragweed” value (“Plant response rating … Ragweed” below) ([7]; 31 g ai/ha Preemergence) was 80 and the “Plant response rating … Ragweed” value ([7]; 125 g ai/ha Preemergence) was 100. For the same compound, the “Oat, Wild plant response rating” value ([8]; 31 g ai/ha Postemergence) was 10 and the “Oat, Wild plant response rating” value ([8]; 125 g ai/ha Postemergence) was 30.

`Cc1cc(C)c(N2CCC(OCC3CCCC3)C2=O)cc1NS(=O)(=O)C(F)(F)F` (stereo not drawn) [Compound 57] was tested, and the “Plant response rating … Giant” value ([1]; 31 g ai/ha Preemergence) was 80, the “Plant response rating … Giant” value ([1]; 125 g ai/ha Preemergence) was 100 and the “Plant response rating … Blackgrass” value ([2]; 31 g ai/ha Preemergence) was 40. For the same compound, the “Plant response rating … Blackgrass” value ([2]; 125 g ai/ha Preemergence) was 80, the “Plant response rating … Palmer” value ([3]; 31 g ai/ha Preemergence) was 100 and the “Plant response rating … Palmer” value ([3]; 125 g ai/ha Preemergence) was 100. The “Plant response rating (0 to 100 scale), Oat, Wild” value ([4]; 31 g ai/ha Preemergence) was 20, the “Plant response rating (0 to 100 scale), Oat, Wild” value ([4]; 125 g ai/ha Preemergence) was 80 and the “Soybean plant response rating” value (soybean (Glycine max); 31 g ai/ha Postemergence) was 80. The “Soybean plant response rating” value (soybean (Glycine max); 125 g ai/ha Postemergence) was 100, the “Wheat plant response rating” value ([5]; 31 g ai/ha Postemergence) was 70 and the “Wheat plant response rating” value ([5]; 125 g ai/ha Postemergence) was 70. For the same compound, the “Plant response rating, Ducksalad” value [6] was 90, the “Plant response rating … Ragweed” value ([7]; 31 g ai/ha Preemergence) was 0 and the “Plant response rating … Ragweed” value ([7]; 125 g ai/ha Preemergence) was 80. The “Oat, Wild plant response rating” value ([8]; 31 g ai/ha Postemergence) was 10 and the “Oat, Wild plant response rating” value ([8]; 125 g ai/ha Postemergence) was 10.

`C#CC(C)OC1CCN(c2cc(NS(=O)(=O)C(F)(F)F)c(C)cc2C)C1=O` (stereo not drawn) [Compound 58] was tested, and the “Plant response rating … Giant” value ([1]; 31 g ai/ha Preemergence) was 100, the “Plant response rating … Giant” value ([1]; 125 g ai/ha Preemergence) was 100 and the “Plant response rating … Blackgrass” value ([2]; 31 g ai/ha Preemergence) was 80. For the same compound, the “Plant response rating … Blackgrass” value ([2]; 125 g ai/ha Preemergence) was 100, the “Plant response rating … Palmer” value ([3]; 31 g ai/ha Preemergence) was 100 and the “Plant response rating … Palmer” value ([3]; 125 g ai/ha Preemergence) was 100. The “Plant response rating (0 to 100 scale), Oat, Wild” value ([4]; 31 g ai/ha Preemergence) was 90, the “Plant response rating (0 to 100 scale), Oat, Wild” value ([4]; 125 g ai/ha Preemergence) was 100 and the “Soybean plant response rating” value (soybean (Glycine max); 31 g ai/ha Postemergence) was 60. The “Soybean plant response rating” value (soybean (Glycine max); 125 g ai/ha Postemergence) was 90, the “Wheat plant response rating” value ([5]; 31 g ai/ha Postemergence) was 70 and the “Wheat plant response rating” value ([5]; 125 g ai/ha Postemergence) was 70. For the same compound, the “Plant response rating, Ducksalad” value [6] was 80, the “Plant response rating … Ragweed” value ([7]; 31 g ai/ha Preemergence) was 80 and the “Plant response rating … Ragweed” value ([7]; 125 g ai/ha Preemergence) was 90. For the same compound, the “Oat, Wild plant response rating” value ([8]; 31 g ai/ha Postemergence) was 60 and the “Oat, Wild plant response rating” value ([8]; 125 g ai/ha Postemergence) was 90.

`Cc1cc(C)c(N2CCC(OCc3ccccc3)C2=O)cc1NS(=O)(=O)C(F)(F)F` (stereo not drawn) [Compound 61] was tested, and the “Plant response rating … Giant” value ([1]; 31 g ai/ha Preemergence) was 100, the “Plant response rating … Giant” value ([1]; 125 g ai/ha Preemergence) was 100 and the “Plant response rating … Blackgrass” value ([2]; 31 g ai/ha Preemergence) was 60. For the same compound, the “Plant response rating … Blackgrass” value ([2]; 125 g ai/ha Preemergence) was 90, the “Plant response rating … Palmer” value ([3]; 31 g ai/ha Preemergence) was 100 and the “Plant response rating … Palmer” value ([3]; 125 g ai/ha Preemergence) was 100. For the same compound, the “Plant response rating (0 to 100 scale), Oat, Wild” value ([4]; 31 g ai/ha Preemergence) was 50, the “Plant response rating (0 to 100 scale), Oat, Wild” value ([4]; 125 g ai/ha Preemergence) was 90 and the “Soybean plant response rating” value (soybean (Glycine max); 31 g ai/ha Postemergence) was 60. For the same compound, the “Soybean plant response rating” value (soybean (Glycine max); 125 g ai/ha Postemergence) was 90, the “Wheat plant response rating” value ([5]; 31 g ai/ha Postemergence) was 70 and the “Wheat plant response rating” value ([5]; 125 g ai/ha Postemergence) was 80. The “Plant response rating, Ducksalad” value [6] was 75, the “Plant response rating … Ragweed” value ([7]; 31 g ai/ha Preemergence) was 0 and the “Plant response rating … Ragweed” value ([7]; 125 g ai/ha Preemergence) was 90. The “Oat, Wild plant response rating” value ([8]; 31 g ai/ha Postemergence) was 20 and the “Oat, Wild plant response rating” value ([8]; 125 g ai/ha Postemergence) was 80.

With `Cc1c(NS(=O)(=O)C(F)(F)F)cc(N2CCC(OCC3CC3)C2=O)c(C)c1F` (stereo not drawn) [Compound 63] the “Plant response rating … Giant” value ([1]; 31 g ai/ha Preemergence) was 100, the “Plant response rating … Giant” value ([1]; 125 g ai/ha Preemergence) was 100 and the “Plant response rating … Blackgrass” value ([2]; 31 g ai/ha Preemergence) was 70. The “Plant response rating … Blackgrass” value ([2]; 125 g ai/ha Preemergence) was 90, the “Plant response rating … Palmer” value ([3]; 31 g ai/ha Preemergence) was 100 and the “Plant response rating … Palmer” value ([3]; 125 g ai/ha Preemergence) was 100. The “Plant response rating (0 to 100 scale), Oat, Wild” value ([4]; 31 g ai/ha Preemergence) was 70, the “Plant response rating (0 to 100 scale), Oat, Wild” value ([4]; 125 g ai/ha Preemergence) was 100 and the “Soybean plant response rating” value (soybean (Glycine max); 31 g ai/ha Postemergence) was 50. The “Soybean plant response rating” value (soybean (Glycine max); 125 g ai/ha Postemergence) was 100, the “Wheat plant response rating” value ([5]; 31 g ai/ha Postemergence) was 10 and the “Wheat plant response rating” value ([5]; 125 g ai/ha Postemergence) was 40. For the same compound, the “Plant response rating, Ducksalad” value [6] was 95, the “Plant response rating … Ragweed” value ([7]; 31 g ai/ha Preemergence) was 90 and the “Plant response rating … Ragweed” value ([7]; 125 g ai/ha Preemergence) was 100. For the same compound, the “Oat, Wild plant response rating” value ([8]; 31 g ai/ha Postemergence) was 0 and the “Oat, Wild plant response rating” value ([8]; 125 g ai/ha Postemergence) was 40.

For `Cc1c(NS(=O)(=O)C(F)(F)F)cc(N2CCC(OCC3CCC3)C2=O)c(C)c1F` (stereo not drawn) [Compound 64], the “Plant response rating … Giant” value ([1]; 31 g ai/ha Preemergence) was 100, the “Plant response rating … Giant” value ([1]; 125 g ai/ha Preemergence) was 100 and the “Plant response rating … Blackgrass” value ([2]; 31 g ai/ha Preemergence) was 20. The “Plant response rating … Blackgrass” value ([2]; 125 g ai/ha Preemergence) was 70, the “Plant response rating … Palmer” value ([3]; 31 g ai/ha Preemergence) was 100 and the “Plant response rating … Palmer” value ([3]; 125 g ai/ha Preemergence) was 100. The “Plant response rating (0 to 100 scale), Oat, Wild” value ([4]; 31 g ai/ha Preemergence) was 20, the “Plant response rating (0 to 100 scale), Oat, Wild” value ([4]; 125 g ai/ha Preemergence) was 90 and the “Soybean plant response rating” value (soybean (Glycine max); 31 g ai/ha Postemergence) was 60. The “Soybean plant response rating” value (soybean (Glycine max); 125 g ai/ha Postemergence) was 90, the “Wheat plant response rating” value ([5]; 31 g ai/ha Postemergence) was 0 and the “Wheat plant response rating” value ([5]; 125 g ai/ha Postemergence) was 20. The “Plant response rating, Ducksalad” value [6] was 80, the “Plant response rating … Ragweed” value ([7]; 31 g ai/ha Preemergence) was 90 and the “Plant response rating … Ragweed” value ([7]; 125 g ai/ha Preemergence) was 100. The “Oat, Wild plant response rating” value ([8]; 31 g ai/ha Postemergence) was 0 and the “Oat, Wild plant response rating” value ([8]; 125 g ai/ha Postemergence) was 10.
